Experimental findings from PMC8119466, “A screen of FDA-approved drugs identifies inhibitors of protein tyrosine phosphatase 4A3 (PTP4A3 or PRL-3)” (Scientific Reports, 2021) are described below.

Holding throughout (type): biochemical
Common to all, as to settings: FDA-approved drug screen; compared to DMSO

For experiment [1], the target named is T1, recombinant PRL-1 (Homo sapiens, UniProt Q93096).
T1 construct: 6xHis (N, cleaved yes); made in house; host or cells: E. coli One Shot BL21 Star
T1 sequence (Q93096 1-173): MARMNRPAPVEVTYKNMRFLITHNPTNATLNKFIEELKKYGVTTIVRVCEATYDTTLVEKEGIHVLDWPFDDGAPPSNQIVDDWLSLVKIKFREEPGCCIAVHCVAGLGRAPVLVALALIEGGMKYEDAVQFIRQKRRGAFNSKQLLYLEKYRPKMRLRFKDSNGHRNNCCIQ
Description: In vitro phosphatase assay (DiFMUP hydrolysis), PRL-1. Note: test concentration or dose not given here.

The target of experiment [2] is T2, recombinant PRL-2 (Homo sapiens, UniProt Q12974).
T2 construct: 6xHis (N, cleaved yes); made in house; host or cells: E. coli One Shot BL21 Star
T2 sequence (Q12974 1-167): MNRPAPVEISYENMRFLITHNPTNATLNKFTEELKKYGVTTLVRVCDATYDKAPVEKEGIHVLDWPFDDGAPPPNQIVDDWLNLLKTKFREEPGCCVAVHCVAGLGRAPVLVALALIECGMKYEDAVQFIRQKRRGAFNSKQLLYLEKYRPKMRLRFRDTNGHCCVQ
Description: In vitro phosphatase assay (DiFMUP hydrolysis), PRL-2.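 Note: PRL-2 activity read as DiFMUP hydrolysis after 20 min at room temperature with drug, enzyme first pre-reduced at 4 °C for 20 min.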

The target of experiment [3] is T3, recombinant PRL-3 (Homo sapiens, UniProt O75365).
T3 construct: 6xHis (N, cleaved yes); made in house; host or cells: E. coli One Shot BL21 Star
Description: In vitro phosphatase assay (DiFMUP hydrolysis), PRL-3. Note: test concentration or dose not given here.

Structures can show the parent of a compound that is named as a salt.

T3 sequence (O75365 whole entry): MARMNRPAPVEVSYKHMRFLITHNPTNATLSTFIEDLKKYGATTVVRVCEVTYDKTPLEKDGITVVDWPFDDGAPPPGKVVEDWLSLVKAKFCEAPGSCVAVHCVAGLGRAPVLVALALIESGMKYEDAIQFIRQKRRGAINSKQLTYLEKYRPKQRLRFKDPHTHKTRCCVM

`CC(C)CN(C[C@@H](O)[C@H](Cc1ccccc1)NC(=O)O[C@H]1CO[C@H]2OCC[C@H]21)S(=O)(=O)c1ccc(N)cc1.CCO` [Darunavir Ethanolate]: in experiment [1], the “% Phosphatase Activity (compared to DMSO) PRL-1” value came out at 99%. The “% Phosphatase Activity (compared to DMSO) PRL-2” value in experiment [2] was 81%. Further, the “% Phosphatase Activity (compared to DMSO) PRL-3” value in experiment [3] stood at 80%.
Taken in the same sequence, the figures for `Cc1nc(Nc2ncc(C(=O)Nc3c(C)cccc3Cl)s2)cc(N2CCN(CCO)CC2)n1` [Dasatinib Monohydrate] were 97%, 79% and 98%.
As for `Cc1nc(Nc2ncc(C(=O)Nc3c(C)cccc3Cl)s2)cc(N2CCN(CCO)CC2)n1` [Dasatinib], the “% Phosphatase Activity (compared to DMSO) PRL-1” value in experiment [1] is given as 89%. Moreover, the “% Phosphatase Activity (compared to DMSO) PRL-2” value in experiment [2] is 88%. Further, the “% Phosphatase Activity (compared to DMSO) PRL-3” value in experiment [3] is reported as 81%.
Take `COc1cccc2c1C(=O)c1c(O)c3c(c(O)c1C2=O)C[C@@](O)(C(C)=O)C[C@@H]3O[C@H]1C[C@H](N)[C@H](O)[C@H](C)O1` [Daunorubicin HCl]: the “% Phosphatase Activity (compared to DMSO) PRL-1” value in experiment [1] is listed as 83%. For the same compound, the “% Phosphatase Activity (compared to DMSO) PRL-2” value in experiment [2] is on record as 92%. Besides, the “% Phosphatase Activity (compared to DMSO) PRL-3” value in experiment [3] was found to be 82%.
Take `Nc1ncn([C@H]2C[C@H](O)[C@@H](CO)O2)c(=O)n1` [Decitabine]: the “% Phosphatase Activity (compared to DMSO) PRL-1” value in experiment [1] is listed as 114%. In addition, the “% Phosphatase Activity (compared to DMSO) PRL-2” value in experiment [2] is on record as 93%. Further, the “% Phosphatase Activity (compared to DMSO) PRL-3” value in experiment [3] was 81%.
Turning to `CNC(=O)c1ccc(Nc2ncc(C(F)(F)F)c(NCc3nccnc3N(C)S(C)(=O)=O)n2)cc1` [Defactinib (VS-6063, PF-04554878)], the “% Phosphatase Activity (compared to DMSO) PRL-1” value in experiment [1] came to 98%. For the same compound, in experiment [2], the “% Phosphatase Activity (compared to DMSO) PRL-2” value came to 87%. The “% Phosphatase Activity (compared to DMSO) PRL-3” value in experiment [3] is 89%.
Taken in the same sequence, the figures for `O=C(O)c1ccc(-n2nc(-c3ccccc3O)nc2-c2ccccc2O)cc1` [Deferasirox] were 108%, 104% and 81%.
For the compound `CC(=O)OCC(=O)[C@@]12N=C(C)O[C@@H]1C[C@H]1[C@@H]3CCC4=CC(=O)C=C[C@]4(C)[C@H]3[C@@H](O)C[C@@]12C` [Deflazacort], the “% Phosphatase Activity (compared to DMSO) PRL-1” value in experiment [1] turned out to be 90%. In experiment [2], the “% Phosphatase Activity (compared to DMSO) PRL-2” value is recorded as 102%. For the same compound, the “% Phosphatase Activity (compared to DMSO) PRL-3” value in experiment [3] is 103%.
As for `CC(=O)C1C(=O)C=C(C)OC1=O` (stereo not drawn) [Dehydroacetic acid], in experiment [1], the “% Phosphatase Activity (compared to DMSO) PRL-1” value turned out to be 99%. For the same compound, the “% Phosphatase Activity (compared to DMSO) PRL-2” value in experiment [2] is on record as 98%. Further, the “% Phosphatase Activity (compared to DMSO) PRL-3” value in experiment [3] is 90%.
Taken in the same sequence, the figures for `C[C@H](CCC(=O)O)[C@H]1CC[C@H]2[C@@H]3C(=O)C[C@@H]4CC(=O)CC[C@]4(C)[C@H]3CC(=O)[C@]12C` [Dehydrocholic acid] were 103%, 118% and 80%.
Taken in the same sequence, the figures for `CN(C)[C@@H]1C(O)=C(C(N)=O)C(=O)[C@@]2(O)C(O)=C3C(=O)c4c(O)ccc(Cl)c4[C@@H](O)[C@H]3C[C@@H]12` [Demeclocycline HCl] were 90%, 86% and 67%.
As for `C[C@H](CCC(=O)O)[C@H]1CC[C@H]2[C@@H]3CC[C@@H]4C[C@H](O)CC[C@]4(C)[C@H]3C[C@H](O)[C@]12C` [Deoxycholic acid], the “% Phosphatase Activity (compared to DMSO) PRL-1” value in experiment [1] turned out to be 89%. Moreover, the “% Phosphatase Activity (compared to DMSO) PRL-2” value in experiment [2] is 73%. Further, the “% Phosphatase Activity (compared to DMSO) PRL-3” value in experiment [3] was found to be 96%.
Taken in the same sequence, the figures for `CC(=O)OCC(=O)[C@H]1CC[C@H]2[C@@H]3CCC4=CC(=O)CC[C@]4(C)[C@H]3CC[C@]12C` [Deoxycorticosterone acetate] were 84%, 83% and 74%.
As for `C#C[C@]1(O)CC[C@H]2[C@@H]3CCC4=CCCC[C@@H]4[C@H]3C(=C)C[C@@]21CC` [Desogestrel], in experiment [1], the “% Phosphatase Activity (compared to DMSO) PRL-1” value came out at 104%. Moreover, the “% Phosphatase Activity (compared to DMSO) PRL-2” value in experiment [2] is given as 109%. The “% Phosphatase Activity (compared to DMSO) PRL-3” value in experiment [3] worked out at 84%.
As to `CC1(C)O[C@@H]2C[C@H]3[C@@H]4CCC5=CC(=O)C=C[C@]5(C)[C@H]4[C@@H](O)C[C@]3(C)[C@]2(C(=O)CO)O1` [Desonide], the “% Phosphatase Activity (compared to DMSO) PRL-1” value in experiment [1] came out at 98%. For the same compound, the “% Phosphatase Activity (compared to DMSO) PRL-2” value in experiment [2] is on record as 97%. In experiment [3], the “% Phosphatase Activity (compared to DMSO) PRL-3” value was determined as 84%.
Taken in the same sequence, the figures for `CN(C)CC(c1ccc(O)cc1)C1(O)CCCCC1` (stereo not drawn) [Desvenlafaxine Succinate] were 106%, 103% and 80%.
